Measured values as given in PMC7156724, “Potent BRD4 inhibitor suppresses cancer cell-macrophage interaction” (Nature Communications, 2020).

Key:
[1] = Metabolic stability assay, dog liver microsomes; details: for Remaining in Dog liver microsomes (Sup Fig.6c): in % (unit assumed)
Description: 7. Metabolic stability assay. The metabolic profile of NHWD-870 was determined using mouse, rat, dog, monkey, and human liver microsomes using the protocols […]
No. Compound ID Exat Mass Stock Conc.
1) 100 mM potassium phosphate buffer, PH7.4; 2) 10mM MgCI2
1) Intermediate solution: Dilute 5 μL of compound or control from stock solution (10 mM) with 45 uL DMSO,then mixed with 450 μL 1:1 Methanol/Water (Conc.: 10 0 […]
2) Working solution: Dilute 50 μL from intermediate solution with 450 μL 100 mM potassium phosphate buffer (Conc.: 10 μM, 4.5%MeOH)
(3) NADPH regenerating system (final Isocitric dehydrogenase conc.= 1 unit/mL at […]
1) β-Nicotinamide adenine dinucleotide phosphate, Vendor: sigma Cat. No. N0505
2) Isocitric acid, Vendor: Sigma Cat. No. I1252
3) Isocitric dehydrogenase, Vendor: sigma Cat. No. I2002
(4) Liver microsome solution preparation (final concentration o f 0.5 mg protein/mL) […]
Cold ACN including 100 ng/mL Tolbutamide and 100 ng/mL Labetalol as internal […]
1) Add 10 μL compound or control working solution/well to all plates (T0, T5, T10, T20, T30, T60, NCF60) except matrix blank.
2) Dispense 680 μL/well microsome solution to 96-well plate as reserv oir according to […]
plate map. Then add 80 μL/well to every plate by Apricot, incubate the mixture of microsome solution and compound at 37℃ for about 10 min.
3) Add 10 μL 100 mM potassium phosphate buffer/well to NCF60, incubate at 37℃, […]
4) After pre-warming, dispense 90 μL/well NADPH regenerating system to 96-well plate as reservoir according to the plate map. Then add 10 μL/well to every plate by Apricot to start reaction.
5) Incubate at 37℃, start timer 2.
6) Add 300 (μL/well) stop solution (cold in 4℃, including 100 ng/mL Tolbutamide and 100 ng/mL Labetalol) to terminate the reaction.
7) The sampling plates are shaked for approx 10 min.
8) Samples are centrifuged at 4000 rpm for 20 min under 4℃.
9) While centrifuging, load 8×new 96-well plate with 300 μL HPLC water, then transfer 100 μL supernatant, mixed for LC/MS/MS.
Use equation of first order kinetics to calculate t1/2 and Clin t(mic): […]
Equation of first order kinetics: […]

[2] = tested on: TAMs; assay: Transwell 3D co-culture of pretreated A2780 cells and TAMs, spheroid volume; assay type: cell-based, mouse
Description: A2780 tumor cells were pretreated with 100 nM NHWD-870 and then directly co-cultured with TAMs (A2780:TAMs ratio as 4:1) at the density of 1 × 10^5 total cells in a 12-well. Shown are immunofluorescent staining of Ki67 and CD68 (a) and quantification of Ki67+ and CD68− or CD68+ cells (b). Scale bar is 50 μm. […] A2780 cells (pre-treated with or without 100 nM NHWD-870 for 48 h) were seeded into the top chamber (transwell size: 0.4 μm) and TAMs (Mac, 40,000 cells per 24-well) in medium containing 2% matrigel were seeded into the bottom chamber pre-coated with Matrigel. No NHWD-870 was added to the co-culture. The upper chamber without A2780 cells was used as a control. Shown are schematics of transwell co-culture experiment (c), representative pictures of TAM spheroid (d: black/white), and quantification of spheroid volumes (e). Scale bar is 50 μm. […] Data are presented as mean ± SEM from three independent experiments. g CSF1 protein levels in supernatant of 10^6 ID8, B16, A2780, SKOV3, and A375 cells treated with DMSO or 25 nM NHWD-870 for 24 h, as measured by ELISA. […] Scale bar is 20 μm. i Quantification of CSF1 staining in DMSO or 100 nM NHWD-870 treated A2780 cells. […] Shown are representative immunofluorescent staining of CSF1 (green) and CD68 (red) (j) and quantification of CSF1 staining (k). […]

[3] = Beagle, dog, liver microsomes, pH 7.4

Question: Which results are given for Cc1nnn(C)c1-c1cnc2c3c4cnn(C)c4ccc3n([C@H](c3ccccc3)C3CCOCC3)c2c1 [NHWD-870]?
Answer: CLint scaled at 1 µM [1, 3]: 95.9 mL/min/kg; half-life at 1 µM [1, 3]: 20.8 min; microsomal CLint at 1 µM ([1]; Beagle, dog, microsomes, pH 7.4): 66.6 µL/min/mg; Remaining (T=60min) ([1]; dog liver microsomes): 12.4%; Remaining (*NCF=60min) ([1]; dog liver microsomes, no cofactor): 84.1%; Remaining in Dog liver microsomes (Sup Fig.6c) ([1]; time 0): 100; Remaining in Dog liver microsomes (Sup Fig.6c) ([1]; time 5): 89.9; Remaining in Dog liver microsomes (Sup Fig.6c) ([1]; time 10): 73.773; Remaining in Dog liver microsomes (Sup Fig.6c) ([1]; time 20): 58.934; Remaining in Dog liver microsomes (Sup Fig.6c) ([1]; time 30): 41.202; Remaining in Dog liver microsomes (Sup Fig.6c) ([1]; time 60): 25.67; fold decrease of the growth of TAMs ([2]; 100 nM, 3-D culture, Fig 5c-e): about 8 fold; ability of A2780 to support the growth of TAMs ([2]; A2780 pretreated with 100 nM, 3D co-culture): completely abolished the ability of A2780 to support the growth of TAMs
